Assay [1] has as its target T1, Epidermal growth factor receptor (Homo sapiens, UniProt P00533).
Description: Inhibition of human recombinant EGFR
Assay [2] addresses T1, Epidermal growth factor receptor. The note with it: at 100 µM.
Description: Inhibition of human recombinant EGFR at 100 uM

T1 sequence (P00533 whole entry): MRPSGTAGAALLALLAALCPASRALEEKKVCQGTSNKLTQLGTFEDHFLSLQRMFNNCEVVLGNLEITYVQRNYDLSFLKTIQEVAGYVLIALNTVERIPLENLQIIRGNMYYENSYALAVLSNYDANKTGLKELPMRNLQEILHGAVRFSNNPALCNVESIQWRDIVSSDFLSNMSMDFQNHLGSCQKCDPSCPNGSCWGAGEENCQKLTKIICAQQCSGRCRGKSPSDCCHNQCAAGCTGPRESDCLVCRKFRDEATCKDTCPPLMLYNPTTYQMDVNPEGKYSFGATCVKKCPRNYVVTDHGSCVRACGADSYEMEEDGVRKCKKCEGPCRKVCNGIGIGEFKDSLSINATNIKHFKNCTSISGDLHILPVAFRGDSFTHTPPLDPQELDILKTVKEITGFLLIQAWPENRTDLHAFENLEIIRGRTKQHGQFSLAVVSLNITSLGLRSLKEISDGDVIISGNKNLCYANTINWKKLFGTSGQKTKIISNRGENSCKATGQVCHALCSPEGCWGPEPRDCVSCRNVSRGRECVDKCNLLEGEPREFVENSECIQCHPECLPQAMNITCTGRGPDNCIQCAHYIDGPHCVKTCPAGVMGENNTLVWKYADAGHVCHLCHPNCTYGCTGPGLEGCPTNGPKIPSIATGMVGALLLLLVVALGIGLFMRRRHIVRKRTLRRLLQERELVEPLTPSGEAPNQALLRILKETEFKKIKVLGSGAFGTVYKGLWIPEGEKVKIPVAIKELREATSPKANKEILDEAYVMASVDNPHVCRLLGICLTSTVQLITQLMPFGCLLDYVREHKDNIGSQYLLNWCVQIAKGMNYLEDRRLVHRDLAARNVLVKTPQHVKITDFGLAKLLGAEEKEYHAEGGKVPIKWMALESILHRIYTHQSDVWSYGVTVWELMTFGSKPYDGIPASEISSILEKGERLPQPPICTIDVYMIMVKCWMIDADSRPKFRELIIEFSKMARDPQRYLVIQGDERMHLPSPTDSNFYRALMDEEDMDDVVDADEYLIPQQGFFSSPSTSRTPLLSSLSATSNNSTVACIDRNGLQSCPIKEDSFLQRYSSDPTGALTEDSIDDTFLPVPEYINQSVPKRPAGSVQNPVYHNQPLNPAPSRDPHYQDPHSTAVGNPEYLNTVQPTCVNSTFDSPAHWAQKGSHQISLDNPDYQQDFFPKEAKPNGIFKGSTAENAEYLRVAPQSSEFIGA

The compound `C=CC(=O)NC1=NC=C2N=CN=C(Nc3ccc(F)c(Br)c3)C21` (stereo unspecified) gave an IC50 in assay [1] of 0.724 nM.
Same read-out and setting: next, `O=C(Nc1ccc(C(F)(F)F)cc1)Nc1ncnc2nn3ccccc3c12`: 10000 nM.
In assay [1], `C=CC(=O)C(C)c1cc2c(Nc3cccc(Br)c3)ncnc2cn1` (stereo unspecified) gave an IC50 of 0.17 nM.
Same read-out and setting: the same measure for `C=CC(=O)Nc1ccc2ncnc(Cc3cccc(C)c3)c2c1`: 0.417 nM; for `C=CC(=O)Nc1cc2c(Cc3cccc(Br)c3)ncnc2cc1OCCCN1CCC(C)CC1`: 1.7 nM.
Same read-out and setting: the same measure for `CN(C)c1cc2ncnc(Nc3cccc(Br)c3)c2cn1`: 0.0891 nM.
Same read-out and setting: the same measure for `Nc1ncnc2nn3ccccc3c12`: 10000 nM.
`C=CC(=O)C(CCCN1CCOCC1)c1cc2c(Nc3cccc(Br)c3)ncnc2cn1` (stereo unspecified): half-maximal inhibition in assay [1] (IC50) required 2.69 nM.
Compound `C/C=C/C(=O)Cc1ccc2ncnc(Nc3cccc(Br)c3)c2c1` gave an IC50 in assay [1] of 0.55 nM.
Still for that read-out and setting: next, `O=C(/C=C/CC(=O)Nc1ccc2ncnc(Nc3cccc(Br)c3)c2c1)Nc1ccc2c(Nc3cccc(Br)c3)ncnc2c1`: 0.447 nM; `O=C(O)/C=C/C(=O)Cc1ccc2ncnc(Nc3cccc(Br)c3)c2c1`: 0.372 nM; `C=CC(=O)NC1=NC=C2N=CN=C(Nc3ccc(F)c(Cl)c3)C21` (stereo unspecified): 0.776 nM.
Same read-out and setting: the same measure for `C=CC(=O)NC1=CC=C2N=CN=C(Nc3ccc(OCc4ccccc4)cc3)C21` (stereo unspecified): 3.63 nM.
In assay [1], `CN(N)C/C=C/C(=O)Nc1cc2c(Nc3cccc(Br)c3)ccnc2cn1` gave an IC50 of 8.6 nM.
Take `CC(C(=O)/C=C/C(=O)NCCCN(C)C)c1cc2c(Nc3cccc(Br)c3)ncnc2cn1` (stereo unspecified): the IC50 in assay [1] is 1.45 nM.
The same measure, in the same setting: the same measure for `C=CC(=O)Nc1nc2c(Cc3ccc(F)c(Cl)c3)ncnc2cc1OCCOC`: 0.977 nM; for `COc1cc2ncnc(Nc3ccc(F)c(Cl)c3)c2cc1CN(C)[C@H](C)C(N)=O`: 9 nM.
Regarding `O=C(Nc1ccc(Br)cc1)Nc1ncnc2nn3ccccc3c12`, half-maximal inhibition in assay [1] (IC50) required 10000 nM.
Take `COc1cc2ncnc(Nc3cccc(C)c3)c2cc1OC`: the inhibition in assay [2] came to 100%. In assay [1], inhibition was half-maximal at 4.6 nM (IC50).
In assay [1], `C/C=C/C(=O)Nc1ccc2c(Nc3cccc(Br)c3)ncnc2c1` showed an IC50 of 0.676 nM. This lies in the sub-nanomolar range.
Same read-out and setting: the same measure for `CCOC(=O)/C=C/C(=O)Cc1ccc2ncnc(Nc3cccc(Br)c3)c2c1`: 2.69 nM; for `C=CC(=O)C(CCCN1CCOCC1)c1ccc2ncnc(Nc3cccc(Br)c3)c2c1` (stereo unspecified): 3.31 nM.
For `C=CC(=O)Nc1cc2c(Cc3ccc(F)c(Cl)c3)ncnc2cc1OCCCN1CCOCC1`, in assay [1], 1.51 nM corresponded to half-maximal inhibition (IC50). Against the preceding compound, the IC50 is about 2.2-fold lower.
On the same count and under the same terms, the same measure for `COc1cc2ncnc(Nc3ccc(F)c(Cl)c3)c2cc1CN(C)[C@@H](C)C(N)=O`: 8 nM.
As for `C=C(C)C(=O)Cc1ccc2ncnc(Nc3cccc(Br)c3)c2c1`, in assay [1], the IC50 is 1.2 nM.
Still for that read-out and setting: the same measure for `O=C(CCn1ncc2cc3c(Nc4cccc(Br)c4)ncnc3cc21)N1CCOCC1`: 3.72 nM; for `CN1Cc2cc3c(Nc4cccc(Br)c4)ncnc3cc21`: 0.794 nM.
The same measure, in the same setting: next, `C=CC(=O)Cc1cc2c(Nc3cccc(Br)c3)ncnc2cn1`: 0.912 nM; `COc1cc2ncnc(Nc3ccc(F)c(Cl)c3)c2cc1CN1CC[C@@H](C(N)=O)C1`: 6 nM; `C=CC(=O)Nc1ccc2ncnc(Cc3ccc(F)c(Cl)c3)c2c1`: 0.759 nM.
Still for that read-out and setting: the same measure for `COc1cc2nccc(Nc3ccc(F)c(Cl)c3)c2cc1NC(=O)/C=C/C(C)N(C)C` (stereo unspecified): 5220 nM; for `O=C(Nc1cccc(C(F)(F)F)c1)Nc1ncnc2nn3ccccc3c12`: 10000 nM; for `COc1cc(NC(=O)/C=C/CN2CCOCC2)cc2c(Nc3cccc(Br)c3)ccnc12`: 5390 nM.
On to `C=CC(=O)NC1=CC=C2N=CN=C(Nc3ccc(Oc4ccccc4)cc3)C21` (stereo unspecified), for which, in assay [1], the IC50 is 5.75 nM. Against the preceding compound, the IC50 is about 940-fold lower.
The same measure, in the same setting: the same measure for `C=CC(=O)Nc1cc2c(Cc3cccc(Br)c3)ncnc2cc1OCCCn1ccnc1`: 3.02 nM; for `COC[C@H]1Oc2cc3ncnc(Nc4cccc(Cl)c4)c3cc2O[C@@H]1COC`: 10.1 nM; for `C=CC(=O)Nc1cc2c(Cc3cccc(C)c3)ncnc2cc1OCCCN1CCOCC1`: 1.51 nM.
Still for that read-out and setting: next, `O=C(/C=C\Cl)Cc1cc2c(Nc3cccc(Br)c3)ncnc2cn1`: 0.692 nM.
Still for that read-out and setting: the same measure for `CS(=O)(=O)CCN(CCCCOc1ccc2ncnc(Nc3ccc(OCc4ccccc4)cc3)c2c1)C(=O)C(F)(F)F`: 234 nM; for `C=CC(=O)Nc1cc2ncnc(Nc3cccc(Cl)c3)c2cn1`: 0.537 nM; for `C=CC(=O)Nc1cc2c(Cc3cccc(C)c3)ncnc2cc1OCCCN1CCC(C)CC1`: 2 nM.
With `O=c1[nH]nc(SCCS(=O)(=O)c2cccc(C(F)(F)F)c2)n1-c1ccc(OCc2ccccc2)cc1`, the inhibition in assay [2] was 53%.
On the same count and under the same terms, next, `CN1CCN(c2ccccc2/C=C2/C(=O)Nc3ccccc32)CC1`: 55%.
In assay [1], `C=CC(=O)Nc1cc2c(Cc3cccc(Br)c3)ncnc2cc1OCCCCN(C)C` showed an IC50 of 3.89 nM.
With `C=CC(=O)Nc1cc2ncnc(Nc3ccc(F)c(Br)c3)c2[nH]1`, half-maximal inhibition in assay [1] (IC50) required 1.2 nM.
In the case of `C=C=CC(=O)Cc1ccc2ncnc(Nc3cccc(Br)c3)c2c1`, the IC50 in assay [1] is 1.58 nM.
Compound `O=C(Nc1ccc(F)cc1)Nc1ncnc2nn3ccccc3c12` showed an IC50 in assay [1] of 10000 nM.
`O=S(=O)(CO)Nc1cc2c(Nc3cccc(Br)c3)ncnc2cn1` showed an IC50 in assay [1] of 93.3 nM. Against the preceding compound, the IC50 is about 110-fold lower.
Same read-out and setting: next, `C=CC(=O)Nc1nc2c(Cc3ccc(F)c(Cl)c3)ncnc2cc1CCCCN1CCOCC1`: 2.69 nM; `O=C(Cc1c[nH]c2cc3ncnc(Nc4cccc(Br)c4)c3cc12)N1CCOCC1`: 4.79 nM; `Brc1cccc(Nc2ncnc3cc4c(cc23)CN4)c1`: 0.437 nM.
Compound `C=CC(=O)Nc1cc2c(Cc3ccc(F)c(Cl)c3)ncnc2cc1OCCOCCCCO` gave an IC50 in assay [1] of 1.7 nM.
`O=C(O)CCNc1cc2ncnc(Nc3cccc(Br)c3)c2cn1`: the IC50 in assay [1] is 0.603 nM.
Still for that read-out and setting: next, `COc1cc2nccc(Nc3ccc(F)c(Cl)c3)c2cc1NC(=O)/C=C/C(C)N1CCOCC1` (stereo unspecified): 10600 nM.
The compound `C=CC(=O)Nc1ccc2ncnc(Cc3ccc(CN(C)C)c(Br)c3)c2c1` showed an IC50 in assay [1] of 44.7 nM.
Same read-out and setting: the same measure for `COc1cc2nccc(Nc3ccc(F)c(Cl)c3)c2cc1NC(=O)/C=C/CN1CCOCC1`: 13600 nM; for `CC(=O)/C=C/C(=O)Cc1ccc2ncnc(Nc3cccc(Br)c3)c2c1`: 1.2 nM.
Compound `C=CC(=O)Nc1nc2c(Cc3ccc(F)c(Cl)c3)ncnc2cc1OC` gave an IC50 in assay [1] of 0.955 nM.
Consider `C=CC(=O)Nc1ccc2ncnc(Cc3ccc(F)c(Br)c3)c2c1`, for which, in assay [1], the IC50 is 0.692 nM.
In assay [1], `CN(C)CCCNC(=O)/C=C/C(=O)Cc1cc2c(Nc3cccc(Br)c3)ncnc2cn1` had an IC50 of 1.1 nM.
`CCOC(=O)c1ccc(N2CCOCC2)c(NS(=O)(=O)c2cc(Br)c(Cl)s2)c1` registered an inhibition in assay [2] of 80%. For the same compound, in assay [1], the IC50 came to 11100 nM.
As for `C=C(C)C(=O)Cc1cc2c(Nc3cccc(Br)c3)ncnc2cn1`, in assay [1], the IC50 was 1.58 nM.
On to `CC1=NNC2OC(N)=C(C#N)C(c3ccc4c(c3)OCO4)C12` (stereo unspecified), for which, in assay [2], the inhibition was determined as 44%.
With `O=C(/C=C/C(=O)NCCCn1ccnc1)Cc1cc2c(Nc3cccc(Br)c3)ncnc2cn1`, the IC50 in assay [1] was 0.562 nM. That is a sub-nanomolar value.
In turn, `CCOC(=O)/C=C/C(=O)Cc1cc2c(Nc3cccc(Br)c3)ncnc2cn1` had an IC50 in assay [1] of 1.51 nM.
`FC(F)(F)c1ccc(-n2cnnc2SCc2nc(COc3c(Cl)cccc3Cl)no2)cc1`: the inhibition in assay [2] amounted to 77%. Also, in assay [1], the IC50 was found to be 6300 nM.
In assay [1], `O=C(Nc1cccc([N+](=O)[O-])c1)Nc1ncnc2nn3ccccc3c12` had an IC50 of 10000 nM.
`O=C(CCCN1Cc2cc3c(Nc4cccc(Br)c4)ncnc3cc21)N1CCOCC1` gave an IC50 in assay [1] of 8.71 nM. Against the preceding compound, the IC50 is about 1100-fold lower.
Still for that read-out and setting: the same measure for `OCC(O)CN1Cc2cc3c(Nc4cccc(Br)c4)ncnc3cc21` (stereo unspecified): 1.58 nM.
On to `C=CC(=O)N(C)c1nc2c(Cc3ccc(F)c(Cl)c3)ncnc2cc1OCCCN1CCOCC1`, for which it took 20 nM to reach half-maximal inhibition in assay [1] (IC50).
On to `C=CC(=O)Nc1nc2c(Cc3ccc(F)c(Cl)c3)ncnc2cc1/C=C/CCN1CCOCC1`, for which inhibition in assay [1] was half-maximal at 0.158 nM (IC50). Against the preceding compound, the IC50 is about 130-fold lower.
The same measure, in the same setting: next, `C=CC(=O)Nc1nc2c(Cc3ccc(F)c(Cl)c3)ncnc2cc1OCCCN1CCC(C)CC1`: 6.61 nM; `C=CC(=O)Nc1cc2ncnc(Nc3cccc(Br)c3)c2[nH]1`: 1.1 nM; `C=CC(=O)NC1=NC=C2N=CN=C(Nc3cccc(C)c3)C21` (stereo unspecified): 0.479 nM.
As for `COc1cc2ncnc(Nc3ccc(F)c(Cl)c3)c2cc1CNC(=O)[C@H]1CCCCN1C`, in assay [1], the IC50 is 8 nM.
On the same count and under the same terms, the same measure for `C=CC(=O)Nc1ccc2ncnc(Cc3ccc(F)c(Cl)c3)c2n1`: 0.759 nM; for `C/C=C/C(=O)Nc1cc2c(Nc3ccc(F)c(Cl)c3)ccnc2cc1CC`: 7500 nM.
Regarding `N#Cc1cccc(NC(=O)Nc2ncnc3nn4ccccc4c23)c1`, the midpoint of inhibition in assay [1], the IC50, lay at 10000 nM.
Take `CCN(CC)CCCNC(=O)/C=C/C(=O)Cc1cc2c(Nc3cccc(Br)c3)ncnc2cn1`: in assay [1], it took 0.724 nM to reach half-maximal inhibition (IC50).
For the compound `C=CC(=O)NC1=CC=C2N=CN=C(Nc3cccc(Cl)c3)C21` (stereo unspecified), 1.58 nM corresponded to half-maximal inhibition in assay [1] (IC50).
As for `C=CC(=O)Nc1cc2c(Cc3ccc(F)c(Br)c3)ncnc2cc1OCCCN1CCOCC1`, in assay [1], the IC50 was 1.82 nM.
Still for that read-out and setting: next, `C=CC(=O)NC1=CC=C2N=CN=C(Nc3cccc(C(F)(F)F)c3)C21` (stereo unspecified): 0.912 nM; `C=CC(=O)Nc1ccc2ncnc(Cc3ccc(OCCN(C)C)c(Br)c3)c2c1`: 26.9 nM; `CCOc1cc2nccc(Nc3cccc(Br)c3)c2cc1NC(=O)/C=C/CN1CCOCC1`: 10300 nM.
`C=CC(=O)Nc1ccc2c(Nc3cccc(Br)c3)ncnc2c1` showed an IC50 in assay [1] of 0.251 nM.
In assay [2], `O=c1[nH]nc2n1-c1ccccc1SC2` showed an inhibition of 48%.
In the case of `C=CC(=O)Nc1ccc2ncnc(Cc3cccc(Br)c3)c2c1`, the midpoint of inhibition in assay [1], the IC50, lay at 0.708 nM.
On the same count and under the same terms, the same measure for `C=CC(=O)NC1=CC=C2N=CN=C(Nc3cccc(C)c3)C21` (stereo unspecified): 0.417 nM.
Still for that read-out and setting: next, `C/C=C/C(=O)Cc1cc2c(Nc3cccc(Br)c3)ncnc2cn1`: 0.501 nM; `O=C(O)CN1Cc2cc3c(Nc4cccc(Br)c4)ncnc3cc21`: 5.13 nM; `CN(C)CCN1Cc2cc3c(Nc4cccc(Br)c4)ncnc3cc21`: 40.7 nM.
In assay [1], `COc1cc2ncnc(Nc3ccc(F)c(Cl)c3)c2cc1CN(C(C)C)[C@@H](C)C(N)=O` returned an IC50 of under 1 nM.
With `C=CC(=O)Nc1cc2c(Cc3cccc(Br)c3)ncnc2cc1SCCCN(CC)CC`, half-maximal inhibition in assay [1] (IC50) required 0.776 nM.

For orientation: IC50 means the point on the concentration scale where inhibition reaches its midpoint. For orientation: inhibition means the relative decrease from the control value, in per cent. Low values mean a response near the control, high ones a response far below the control.
